In patent US20110160280A1, “CANCER-RELATED GENES, CDCA5, EPHA7, STK31 AND WDHD1” (Oncotherapy Science, Inc., priority 2007, published 2011):

What was measured:
[1] = system: WDHD1; experiment: RNA interference assay: WDHD1 knockdown by RT-PCR; format: cell-based, human; settings: A549, LC319 and TE9 cells
Protocol: Total RNA was extracted from cultured cells using Trizol reagent (Life Technologies, Inc. Gaithersburg, Md.) according to the manufacturer's protocol. Extracted RNAs were treated with DNase I (Nippon Gene, Tokyo, Japan) and reversely-transcribed using oligo (dT) primer and SuperScript II. The primer sets for amplification were as follows:
(§1) Small interfering RNA (siRNA) duplexes (Dharmacon, Inc., Lafayette, Colo.) (600 pM) were transfected into lung-cancer cell lines LC319 and A549 for CDCA5; NCI-H520 and SBC-5 for EPHA7; LC319 for WDHD1, and esophageal cancer cell line TE9 for WDHD1 using 30 μl of Lipofectamine 2000 (Invitrogen, Carlsbad, Calif.) following the manufacturer's protocol. The transfected cells were cultured for 7 days, and the number of colonies was counted by Giemsa staining, and viability of cells was evaluated by 3-(4,5-dimethylthiazol-2-yl)-2,5-diphenyltetrazolium bromide (MTT) assay (cell counting kit-8 solution; Dojindo Laboratories, Kumanoto, Japan), at 7 days after transfection. To confirm suppression of gene expression, semiquantitative RT-PCR was carried out with synthesized primers described above.

[2] = system: A549 cells; experiment: RNA interference assay (oligo based): colony formation and MTT assays; format: cell-based, human
[3] = system: TE9 cells; experiment: as above; format: cell-based, human
Protocol: as §1

[4] = system: LC319 cells; experiment: as above; format: cell-based, human
Protocol: as §1

[5] = system: A549 cells; experiment: Flow cytometry (cell cycle) after si-WDHD1; format: cell-based, human
Protocol: Cells were collected in PBS, and fixed in 70% cold ethanol for 30 minutes. After treatment with 100 μg/mL RNase (Sigma/Aldrich, St. Louis, Mo.), the cells were stained with 50 μg/mL propidium iodide (Sigma/Aldrich, St.) in PBS. Flow cytometry was done on a Becton Dickinson FACScan and analyzed by ModFit software (Verity Software House, Inc., Topsham, Me.). The cells selected from at least 20,000 ungated cells were analyzed for DNA content.

[6] = system: mitotic cells; experiment: Immunocytochemical analysis of mitotic cells after siRNA for WDHD1; format: cell-based; settings: control si-LUC: normal metaphase figures
Protocol: Cultured cells were washed twice with PBS(−), fixed in 4% formaldehyde solution for 30 min at room temperature and then rendered permeable with PBS(−) containing 0.1% Triton X-100 for 3 min at room temperature. Nonspecific binding was blocked by Casblock (ZYMED, San Francisco, Calif.) for 10 min at room temperature for CDCA5 and WDHD1, by Casblock (ZYMED, San Francisco, Calif.) for 7 min at room temperature for EPHA7, 3% bovine serum albumin in PBS(−) for 7 min at room temperature for STK31. Cells were then incubated for 60 min (for CDCA5, EPHA7 or STK31) or 10 min (for WDHD1) at room temperature with primary antibodies diluted in PBS containing 3% BSA. After being washed with PBS(−), the cells were stained by a donkey anti-rabbit secondary antibody conjugated to Alexa488 (Molecular Probes) (for CDCA5 and EPHA7) or FITC-conjugated secondary antibody (Santa Cruz Biotechnology, Santa Cruz, Calif.) (for STK31 and WDHD1) at 1:1,000 dilutions for 60 min at room temperature. After another wash with PBS(−), each specimen was mounted with Vectashield (Vector Laboratories, Inc., Burlingame, Calif.) containing 4′,6-diamidino-2-phenylindole and visualized with Spectral Confocal Scanning Systems (TSC SP2 AOBS; Leica Microsystems, Wetzlar, Germany).

[7] = system: A549 cells; experiment: Time-lapse imaging (live cell imaging) after siRNA for WDHD1; format: cell-based, human; settings: control cells divided about every 10 hours
Protocol: Cells were grown on a 35 mm glass-bottom dish in phenol red-free Dulbecco's modified Eagle's medium containing 10% fetal bovine serum (FBS). Cells were transfected with siRNA and subjected to time-lapse imaging using a computer-assisted fluorescence microscope (Olympus, LCV100) equipped with an objective lens (Olympus, UAPO 40×/340 N.A.=0.90), a halogen lamp, a red LED (620 nm), a CCD camera (Olympus, DP30), differential interference contrast (DIC) optical components, and interference filters. For DIC imaging, the red LED was used with a filter cube containing an analyzer. Image acquisition and analysis were performed by using MetaMorph 6.13 software (Universal Imaging, Media, Pa.).

[8] = synchronized A549 cells after cell cycle release

With “5′-GGUAAUACGUGGACUCCUA UU-3′ (GGUAAUACGUGGACUCCUAUU; listed as RNA, chemistry not given here) [si-WDHD1-#2]” the “WDHD1 knockdown effect (RT-PCR)” value [1] was “knockdown effect was confirmed”, the “number of A549 cells (MTT and colony-formation assays), siRNA against WDHD1” value [2] was “drastic reduction in the number of cells” and the “number of TE9 cells (MTT and colony-formation assays), siRNA against WDHD1” value [3] was “drastic reduction in the number of cells”. For the same substance, the “number of LC319 cells (MTT and colony-formation assays), siRNA against WDHD1” value [4] was “drastic reduction in the number of cells”, the “number of cells in S phase” value ([5]; A549 cells, 24˜72 hours after transfection) was “continuously decreased” and the “proportion of cells in G0/G1 phase” value ([5]; A549 cells, 48˜72 hours after transfection) was “increased”. For the same substance, the “number of cells in G0/G1 phase” value [5, 8] was “increased”, the “progression of S phase” value [5, 8] was “delayed” and the “chromosome congression in mitotic cells” value [6] was “chromosomes failed to congress at the spindle midzone”. For the same substance, the “cell division and cell death (time-lapse microscopy)” value [7] was “divided slowly and died shortly after cell division”.
